In one assay the target is T1, α1A adrenoceptor (Rattus norvegicus, UniProt P43140).
T1 construct: from tissue; host or cells: rat submaxillary gland membranes
T1 sequence (P43140 1-466): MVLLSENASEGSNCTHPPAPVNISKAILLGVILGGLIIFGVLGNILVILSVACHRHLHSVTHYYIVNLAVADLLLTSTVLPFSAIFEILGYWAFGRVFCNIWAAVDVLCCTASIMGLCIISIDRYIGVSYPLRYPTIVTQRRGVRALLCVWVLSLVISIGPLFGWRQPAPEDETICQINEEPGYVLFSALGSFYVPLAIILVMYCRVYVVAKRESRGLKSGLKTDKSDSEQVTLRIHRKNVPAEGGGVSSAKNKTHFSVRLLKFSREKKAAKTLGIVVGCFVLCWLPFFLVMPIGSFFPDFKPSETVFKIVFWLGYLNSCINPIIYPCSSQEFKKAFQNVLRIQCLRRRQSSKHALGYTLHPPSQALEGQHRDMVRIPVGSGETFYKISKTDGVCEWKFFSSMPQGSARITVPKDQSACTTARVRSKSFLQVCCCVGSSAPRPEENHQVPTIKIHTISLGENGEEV
Put plainly: Radioligand binding, [3H] prazosin displacement, rat submaxillary membranes. Particulars: for Ki: [3H] prazosin displacement, rat submaxillary membranes, read-out: Affinity (Ki) α1A (Rat Submaxillary); for α1B/α1A: ratio of binding affinities, rat liver / rat submaxillary. A digest of the protocol:
(§1)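 Displacement of [3H]prazosin measured by filtration and counting, with Ki from IC50 via Cheng–Prusoff and nonspecific binding set by 300 nM prazosin. Native rat submaxillary (α1A) or liver (α1B) membranes, 150-250 μg protein, 1 h at 24-25° C in Tris/EDTA pH 7.4.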

For another assay, the target named is T2, α1B adrenoceptor (Rattus norvegicus, UniProt P15823).
T2 construct: from tissue; host or cells: rat liver membranes
T2 sequence (P15823 1-515): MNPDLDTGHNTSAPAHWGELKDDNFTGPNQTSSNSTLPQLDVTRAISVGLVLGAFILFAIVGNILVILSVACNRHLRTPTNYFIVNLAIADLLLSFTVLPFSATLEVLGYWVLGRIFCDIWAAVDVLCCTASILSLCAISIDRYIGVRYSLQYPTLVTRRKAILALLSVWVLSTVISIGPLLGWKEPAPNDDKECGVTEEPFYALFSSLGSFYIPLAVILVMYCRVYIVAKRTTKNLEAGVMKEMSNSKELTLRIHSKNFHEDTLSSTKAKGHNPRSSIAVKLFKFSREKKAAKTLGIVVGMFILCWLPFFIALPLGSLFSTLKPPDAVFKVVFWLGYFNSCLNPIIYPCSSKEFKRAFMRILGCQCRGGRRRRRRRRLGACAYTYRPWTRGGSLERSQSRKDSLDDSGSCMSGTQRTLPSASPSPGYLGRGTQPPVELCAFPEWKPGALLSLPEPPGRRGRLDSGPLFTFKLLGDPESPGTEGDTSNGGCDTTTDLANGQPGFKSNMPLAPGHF
As to the kind of experiment: Radioligand binding, [3H] prazosin displacement, rat liver membranes. The following applies: read-out: Affinity (Ki) α1B (Rat Liver). A digest of the protocol: as §1

In assay [1] the target is T3, α1A adrenoceptor (prostate) (Rattus norvegicus, UniProt P43140).
T3 construct: from tissue; host or cells: isolated prostate tissue
T3 sequence (P43140 1-466): T1 sequence (P43140 1-466)
As to the kind of experiment: In vitro functional assay, isolated prostate, phenylepinephrine contraction. In kind it is cell-based. The following applies: for Selectivity α1B/α1A / Selectivity α1D/α1A: functional, from pKB; for Kb: rat prostate, phenylepinephrine, read-out: α Adrenoceptor Subtype (pKB) α1A (converted). The source says:
(§2) In order to study selectivity of action of these compounds towards different a-adrenoceptor subtypes, the ability of these compounds to antagonise (α1D) prostate (α1A) and spleen (α1B) was studied. Aorta and spleen tissues were isolated from urethane anaesthetized (1.5 g/kg) male wister rats. Isolated tissues were mounted in organ bath containing Krebs Henseleit buffer of the following composition (mM): NaCl 118; KCl 4.7; CaCl2 2.5; MgSO4 7H2O 1.2; NaHCO3 25; KH2PO4 1.2; glucose 11.5. Buffer was maintained at 37° C. and aereated with a mixture of 95% O2 and 5% CO2. A resting tension of 2 g (aorta) or 1 g (spleen and prostate) was applied to tissues. Contractile response was monitored using a force displacement transducer and recorded on chart recorders. Tissues were allowed to equilibrate for 2 hours. At the end of equilibration period, concentration response curves to norepinephrine (aorta) and phenylepinephrine (spleen and prostate) were obtained in the absence and presence of tested compound (at concentration of […]). Antagonist affinity was calculated and expressed as pKB values in Table II.

The target of assay [2] is T4, α1B adrenoceptor (spleen) (Rattus norvegicus, UniProt P15823).
T4 construct: Isolated tissues were mounted in organ bath containing Krebs Henseleit buffer; from tissue; host or cells: isolated rat spleen
T4 sequence (P15823 1-515): T2 sequence (P15823 1-515)
As to the kind of experiment: In vitro functional assay, isolated spleen, phenylepinephrine contraction. The following applies: read-out: α Adrenoceptor Subtype (pKB) α1B (converted). In kind it is cell-based.
Text: as §2

The next assay deals with T5, α1D adrenoceptor (aorta) (Rattus norvegicus, UniProt P23944).
T5 construct: Isolated tissues were mounted in organ bath containing Krebs Henseleit buffer; from tissue; host or cells: isolated rat aorta
T5 sequence (P23944 1-561): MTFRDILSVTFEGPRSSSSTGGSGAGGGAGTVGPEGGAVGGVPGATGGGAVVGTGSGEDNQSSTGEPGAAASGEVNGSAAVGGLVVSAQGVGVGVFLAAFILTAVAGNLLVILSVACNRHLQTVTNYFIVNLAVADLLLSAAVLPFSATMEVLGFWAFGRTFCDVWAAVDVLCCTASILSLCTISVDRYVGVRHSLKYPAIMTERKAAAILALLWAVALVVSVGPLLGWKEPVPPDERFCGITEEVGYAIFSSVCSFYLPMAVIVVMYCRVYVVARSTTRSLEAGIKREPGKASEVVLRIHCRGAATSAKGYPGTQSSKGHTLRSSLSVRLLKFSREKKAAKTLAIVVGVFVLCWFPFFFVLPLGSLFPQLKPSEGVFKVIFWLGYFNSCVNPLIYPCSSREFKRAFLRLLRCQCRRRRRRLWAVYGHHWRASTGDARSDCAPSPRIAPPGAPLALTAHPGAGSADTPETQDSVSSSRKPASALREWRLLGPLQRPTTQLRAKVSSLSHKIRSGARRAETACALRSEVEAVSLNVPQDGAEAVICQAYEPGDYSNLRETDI
As to the kind of experiment: In vitro functional assay, isolated aorta, norepinephrine contraction. Format: cell-based. Particulars: read-out: α Adrenoceptor Subtype (pKB) α1D (converted).
Text: as §2

Here are results for 10 compounds from patent US20050228180A1, “Alpha, omega-dicarboximide derivatives as useful uro-selective a1a adrenoceptor blockers” (priority 2002, published 2005).

Counter-ions that a name gives are not always drawn.

The Ki is the equilibrium dissociation constant of an inhibitor or competing ligand from its target.

With `CCOc1ccccc1[N+]1([O-])CC[N+]([O-])(CCCN2C(=O)C3CC=CCC3C2=O)CC1` (stereo not shown) [Compound No. 10, 2-[3-{4-(2-Ethoxyphenyl)piperazin-1-yl, 1,4-N,N-dioxide}propyl]-3a,4,7,7a-tetrahydro-1H-isoindole-1,3(2H)-dione], the Ki on α1A adrenoceptor and on α1B adrenoceptor was above 1000 nM in each case. Also, the “Selectivity α1B/α1A” value in assay [1] stood at 13. In assay [1], the “Selectivity α1D/α1A” value turned out to be 40. Besides, the Kb in assay [1] was 1.48 nM; in assay [2], 18.6 nM; on α1D adrenoceptor (aorta), 58.9 nM.
On to `CCOc1ccccc1N1CCN(CC(O)CN2C(=O)C3CC=CCC3C2=O)CC1` (stereo not shown) [Compound No. 11, 2-[3-{4-(2-Ethoxyphenyl)piperazin-1-yl}-2-hydroxypropyl]-3a,4,7,7a-tetrahydro-1H-isoindole-1,3-(2H)-dione hydrochloride], for which, at α1A adrenoceptor, the Ki worked out at 6.4 nM and the α1B/α1A turned out to be 30. Further, the Ki at α1B adrenoceptor turned out to be 191 nM. In addition, in assay [1], the “Selectivity α1B/α1A” value is listed as 0.1, the “Selectivity α1D/α1A” value was found to be 0.5 and the Kb is 7.24 nM. Besides, in assay [2], the Kb is 0.759 nM. Also, the Kb on α1D adrenoceptor (aorta) was 3.72 nM.
`CCOc1ccccc1N1CCN(CCCN2C(=O)C3CC(O)C(O)CC3C2=O)CC1` (stereo not shown) [Compound No. 12, 2-[3-{4-(2-Ethoxyphenyl)piperazin-1-yl}propyl]-5,6-dihydroxy-3a,4,5,6,7,7a-hexahydro-1H-isoindole-1,3(2H)-dione]: the inhibitory constant (Ki) at α1A adrenoceptor was determined as 1.7 nM; on α1B adrenoceptor, 118 nM. The α1B/α1A at α1A adrenoceptor is recorded as 69. Also, the “Selectivity α1B/α1A” value in assay [1] is 60. Further, the “Selectivity α1D/α1A” value in assay [1] was 4.2. Also, the results for the Kb (in assay [1]; in assay [2]; at α1D adrenoceptor (aorta)) were 1.66 nM, 100 nM and 6.92 nM, respectively.
In the case of `CC(C)Oc1ccccc1N1CCN(CCCN2C(=O)C3CC(O)C(O)CC3C2=O)CC1` (stereo not shown) [Compound No. 13, 2-[3-{4-(2-Isopropoxyphenyl)piperazin-1-yl}propyl]-5,6-dihydroxy-3a,4,5,6,7,7a-hexahydro-1H-isoindole-1,3(2H)-dione], the Ki amounted to 0.36 nM at α1A adrenoceptor and 85 nM at α1B adrenoceptor. In addition, the α1B/α1A on α1A adrenoceptor worked out at 236. For the same compound, in assay [1], the “Selectivity α1B/α1A” value is 17. Further, the “Selectivity α1D/α1A” value in assay [1] is listed as 0.7. The values for the Kb (in assay [1]; in assay [2]; on α1D adrenoceptor (aorta)) were 3.24 nM, 55 nM and 2.29 nM, respectively.
Regarding `CC(C)Oc1ccccc1N1CCN(CCCN2C(=O)C3CC4OC4CC3C2=O)CC1` (stereo not shown) [Compound No. 19, 2-[3-{4-(2-Isopropoxyphenyl)piperazin-1-yl}propyl]-5,6-epoxy-3a,4,5,6,7,7a-hexahydro-1H-isoindole-1,3(2H)-dione], on α1A adrenoceptor, the inhibitory constant (Ki) came to 0.23 nM and the α1B/α1A was 452. For the same compound, the inhibitory constant (Ki) at α1B adrenoceptor turned out to be 104 nM. In assay [1], the “Selectivity α1B/α1A” value stood at 87, the “Selectivity α1D/α1A” value is given as 3.4 and the Kb is 0.794 nM. In addition, the Kb in assay [2] was 69.2 nM. The Kb at α1D adrenoceptor (aorta) is 2.69 nM.
As for `CC(C)Oc1ccccc1N1CCN(CCCN2C(=O)C3CCC(O)CC3C2=O)CC1` (stereo not shown) [Compound No. 20, 2-[3-{4-(2-Isopropoxyphenyl)piperazin-1-yl}propyl]-5-hydroxy-3a,4,5,6,7,7a-hexahydro-1H-isoindole-1,3(2H)-dione], on α1A adrenoceptor, the inhibition constant (Ki) was determined as 0.28 nM and the α1B/α1A is on record as 328. Also, the inhibition constant (Ki) on α1B adrenoceptor was determined as 92 nM. Moreover, in assay [1], the “Selectivity α1B/α1A” value is listed as 240, the “Selectivity α1D/α1A” value was 2.5 and the Kb was 0.427 nM. Besides, the Kb in assay [2] was 102 nM. In addition, the Kb on α1D adrenoceptor (aorta) is 1.07 nM.
On to `CC(C)Oc1ccc(O)cc1N1CCN(CCCN2C(=O)C3CC=CCC3C2=O)CC1.Cl` (stereo not shown) [Compound No. 21, 2-[3-{4-(2-Isopropoxy-5-hydroxyphenyl)piperazin-1-yl}propyl]-3a,4,7,7a-tetrahydro-1H-isoindole-1,3(2H)-dione hydrochloride], for which, at α1A adrenoceptor, the Ki is 3.4 nM and the α1B/α1A was determined as 189. Besides, the Ki on α1B adrenoceptor amounted to 643 nM. Besides, in assay [1], the “Selectivity α1B/α1A” value is reported as 15, the “Selectivity α1D/α1A” value is listed as 5.24 and the Kb is 4.68 nM. For the same compound, the Kb in assay [2] was 70.8 nM. In addition, the Kb on α1D adrenoceptor (aorta) is 24.5 nM.
Consider `CC(C)Oc1cc([N+](=O)[O-])ccc1N1CCN(CCCN2C(=O)C3CC=CCC3C2=O)CC1` (stereo not shown) [Compound No. 25, 2-[3-{4-(2-Isopropoxy-4-nitrophenyl)piperazin-1-yllpropyl]-3a,4,7,7a-tetrahydro-1H-isoindole-1,3(2H)-dione hydrochloride], for which the Ki came to 0.86 nM at α1A adrenoceptor and 173 nM on α1B adrenoceptor. At α1A adrenoceptor, the α1B/α1A amounted to 201. Moreover, the “Selectivity α1B/α1A” value in assay [1] worked out at 22. Besides, the “Selectivity α1D/α1A” value in assay [1] came out at 0.93. Further, the Kb in assay [1] was 4.57 nM; in assay [2], 100 nM; on α1D adrenoceptor (aorta) it was 4.27 nM.
With `CC(C)Oc1ccccc1N1CCN(CCCN2C(=O)C3CC(O)C(Cl)CC3C2=O)CC1.Cl` (stereo not shown) [Compound No. 28, 2-[3-{4-(2-Isopropoxyphenyl)piperazin-1-yl}propyl]-5-chloro-6-hydroxy-3a,4,5,6,7,7a-hexahydro-1H-isoindole-1,3(2H)-dione hydrochloride], on α1A adrenoceptor, the inhibition constant Ki was determined as 0.24 nM and the α1B/α1A is on record as 171. Further, the Ki at α1B adrenoceptor worked out at 41 nM. Further, in assay [1], the “Selectivity α1B/α1A” value was found to be 45, the “Selectivity α1D/α1A” value amounted to 1.4 and the Kb is 0.977 nM. In addition, the Kb in assay [2] is 43.7 nM. The Kb on α1D adrenoceptor (aorta) was 1.41 nM.
With `Cl.O=C1C2CCC(O)CC2C(=O)N1CCCN1CCN(c2ccccc2OCC(F)(F)F)CC1` (stereo not shown) [Compound No. 33, 2-[3-{4-(2-(2,2,2-Trifluoroethoxy)phenyl)piperazin-1-yl}propyl]-5-hydroxy-3a,4,5,6,7,7a-hexahydro-1H-isoindole-1,3(2H)-dione hydrochloride], at α1A adrenoceptor, the Ki was 0.24 nM and the α1B/α1A is 142. At α1B adrenoceptor, the inhibition constant Ki was found to be 34 nM. In assay [1], the “Selectivity α1B/α1A” value came out at 18, the “Selectivity α1D/α1A” value is listed as 2.6 and the Kb was 0.603 nM. The Kb in assay [2] is 11 nM. Also, the Kb on α1D adrenoceptor (aorta) is 1.58 nM.
